Tests used:
COX-2 mRNA = test: Reverse transcriptase PCR of COX-2 mRNA; format: cell-based, human; details: HT-29; selected concentrations
Protocol: HT-29 cells were treated with the selected drugs as indicated. The mRNA was extracted, and equal amounts were transcribed to cDNA from a kit (Promega, CITY, USA). The cDNA was taken from samples at various times and used as the DNA templates for PCR. Primers used for COX-2 were: […]
GAPDH was used to ensure equal loading. […] were used as the template and […] of each primer was used for each cDNA sample. The samples went through 30 rounds of PCR. They were separated on 1% agarose gel and visualized by ethidium bromide. 7. Measurement of PGE2 Concentration

COX-2 = details: HT-29; curcumin 10-15 μM
Protocol: PGE2 concentration in the medium, as released by the cells, was determined by a commercially available PGE2-specific enzyme-linked immunoassay (R&D Biosystems, Abingdon, UK) according to the manufacturer's protocol.

RASFs = test: RASF cell viability assay (XTT); format: cell-based; details: Homo sapiens, 72 hours, read-out: IC50 cell growth
Protocol: RASFs that had been prepared from small pieces (2 mm in diameter) of human synovial tissue were grown after trypsinization in monolayers in tissue culture flasks, as known to a person skilled in the art. The synovial tissue specimens were obtained during total knee replacement surgery in patients diagnosed as having rheumatoid arthritis according to the revised criteria of the American College of Rheumatology. Synovial tissue was digested for 2 hours with 0.2% (weight/volume) bacterial collagenase and then suspended in Dulbecco's modified Eagle's medium (DMEM, Biological Industries, Israel) with 10% (volume/volume) fetal calf serum (FCS), 100 units/ml penicillin, and […] streptomycin. The cells were incubated at 37° C. in 5% CO2 for 3-5 days, after which the non-adherent cells were removed. Fibroblast-like adherent cells from the first or second passage were used as RASFs.
RASFs (1.5×10^4/well) were incubated at 37° C. in 96-well plastic plates with test drugs in DMEM containing 10% FCS in an atmosphere of 5% CO2 (fmal dimethyl sulfoxide concentration 0.1%). After 72 hours, cell viability was assessed by the ability of metabolically active cells to reduce tetrazolium salt (XTT) to colored formazan compounds. The absorbance of the samples was measured with a specific enzyme-linked immunoassay (ELISA) reader (wavelength 450 nm; reference wavelength 630 nm). […]

RASF cells = test: RASF apoptosis, flow-cytometric analysis

SMILES | COX-2 mRNA expression (COX-2 mRNA) | effect on PGE2 synthesis (COX-2) | IC50 (RASFs) | cell apoptosis (cells with sub-diploid DNA content) (RASF cells; curcumin 20 μM) | cell apoptosis (cells with sub-diploid DNA content) (RASF cells; celecoxib 20-40 μM)
COc1cc(/C=C/C(=O)CC(=O)/C=C/c2ccc(O)c(OC)c2)ccc1O [curcumin] | no effect | dose-dependent effect | 35 µM | 4.7% | 
Cc1ccc(-c2cc(C(F)(F)F)nn2-c2ccc(S(N)(=O)=O)cc2)cc1 [celecoxib, reference compound] |  |  | 40 µM |  | 4.8-19.2%
